Measured values from US11622951B2, “Alpha-aminoadipate for treatment of vision loss and restoring sight” (The Schepens Eye Research Institute, Inc., priority 2013, dated 2023).

Legend:
Müller glia = experiment: Electron microscopy count of Müller cell nuclei in retinal sections; format: in vivo, mouse; details: 3 days after subretinal injection 1 μg/μl, vs saline-injected group
Protocol: Mice were sacrificed 3 days after receiving the injection of α-AA (1 μg/μl) or saline as controls by injection of overdose of ketamine/xylazine followed by cervical dislocation, and the eyeballs were dissected, fixed with Karnovsky's fixative (pH 7.4) for 24 h. The quadrants of the eyes that received subretinal injection were dissected and embedded in Epon-Araldite. Semi-thin sections (1-2 μm) were stained with phenylenediamine phase staining. The sections were examined and photographed with a transmission electron microscope (EM410; Philips; Eindhoven, The Netherlands). Ten randomly selected retinal sections of each eye were photographed at 1900× magnification, and all Müller glial nuclei in the photomicrograph were counted.
Retinal sections were examined under electron microscopy, in which Müller glia were identified by their characteristic angular nuclei, dense chromatin and dark perinuclear cytoplasm (FIG. 1e-h). […] This was also confirmed by immunolabeling for specific markers of retinal neurons, including photoreceptors (recoverin) and amacrine cells (syntaxin) (FIG. 2).

[1] = test system: rod photoreceptor cell function; experiment: Scotopic ERG a-wave after retinal progenitor transplantation in Gnat1-/- mice; format: in vivo, mouse; details: pretreatment plus retinal progenitor cell transplantation, 21 days post transplantation
Protocol: At 2 days before transplantation, 2 μl of a solution containing either α-AA (1 μg/μl) or saline (control) was injected unilaterally into the subretinal space of recipient wild-type or Gnat1^−/− mice (>2 months old). The procedure for donor cell preparation was essentially as described by Kinouchi et al, 2003, Nat Neurosci, 6:863-868. Briefly, retinal progenitor cells were isolated from postnatal day 0 (P0) EGFP transgenic mice. Cell suspensions containing approximately 1×10^6 dissociated cells were injected slowly through a glass micropipette into the subretinal space of pretreated recipient mice through the same injection site where either saline or α-AA had been injected 2 days prior.
At 21 days post transplantation, Gnat1−/− mice that had received either α-AA or saline-pretreatment followed by retinal progenitor cell transplantation were analyzed by full-field ERG. Mice were dark adapted for 12 hours and then anesthetized by intraperitoneal injection of ketamine (62.5 mg/kg) and xylazine (12.5 mg/kg). […] A total of six scans were taken and averaged; the a-wave amplitudes were measured from baseline to the peak in the cornea-negative direction. […] Statistical significance was calculated using the Student's t test or ANOVA. […]

NC(CCCC(=O)O)C(=O)O (stereo not drawn) [α-AA, alpha-aminoadipate]
reduction in counts of Müller cell nuclei (Müller glia): 30%
ERG a-wave (rod photoreceptor response) [1]: a typical a-wave was detected
